Laboratory results published in PMC10223737, “Validation of Freshly Isolated Rat Renal Cells as a Tool for Preclinical Assessment of Radiolabeled Receptor-Specific Peptide Uptake in the Kidney” (Pharmaceuticals, 2023).
Where a SMILES comes first, the peptide text is derived from it. [ ]: non-standard residue; d: D form. The star is where a group is joined. DOTA = O=C(O)CN1CCN(CC(=O)O)CCN(CC(=O)*)CCN(CC(=O)O)CC1

Experiments:
isolated rat renal cells [1] = experiment: Active versus passive cellular accumulation in isolated rat renal cells (37 °C vs low temperature); assay type: in vitro ADME; settings: n = 4, Figure 6; for contribution of active accumulation to cell uptake: 37 °C (= 100%) vs low incubation temperature (2–4 °C)
From the text: An experiment was arranged to test this cellular model's potential for investigating active membrane transport processes in radiopeptide renal accumulation. […] Using the same procedure as for the radiopeptides, we tested and expressed the uptake of the other studied compounds.

rat kidneys = settings: cited from earlier work; for radiopeptide uptake in rat kidneys in vivo: radioactivity in the kidneys 60 min after i.v. administration, rats
From the text: The data on radiopeptide cellular uptake were compared with already available data on radiopeptide renal retention in rats in vivo, which were previously published by our team.

isolated rat renal cells [2] = experiment: Radiopeptide uptake in freshly isolated rat renal cells; settings: 1 mL suspension 2.10^6/mL + 10 µL radiopeptide (1 µg/mL), 30 min, 37 °C, cells washed four times, gamma-counter
Description: Fresh rat renal cells were isolated from the kidney using the two-phase collagenase perfusion method described by Jones et al. [11]. Male Wistar rats weighing 270–330 g were used for the experiments. The rats were housed under standard conditions (tap water, standard diet, and a 12/12 h light–dark cycle). Animals were fasted for 18–24 h prior to experiments.
As a first step, rats were anesthetized (sodium pentobarbital, 50 mg/kg), the abdomen was opened, and the right renal artery and adjacent parts of the aorta were freed. Then, the right renal artery was cannulated via the aorta. Single-pass perfusion was conducted using oxygenated calcium-free Hanks’ buffer (pH 7.4) containing EGTA (0.5 mM) and Hepes (25 mM). The second perfusion phase was performed in a recirculation system with modified Hanks’ buffer containing CaCl2 (4 mM) and collagenase (0.10 % w/v) for 18–22 min. The kidneys were removed and dispersed in cold Krebs–Henseleit buffer with Hepes (25 mM) and bovine serum albumin (2% w/v). The resulting suspension was filtered and washed with Krebs–Henseleit buffer. Following centrifugation (3 min; 80 g; 4 °C), we used the trypan blue exclusion method to determine the number of cells in the suspension. […] As a result, the cell viability at the end of the 30 min incubation interval was >85%.
Standard incubations were conducted for 30 min at 37 °C using 1 mL of cell suspension containing 2.10^6/mL renal cells. The radiopeptide uptake was determined by mixing 1 mL of cell suspension and 10 µL of the radiopeptide (1 µg/mL). After incubation, the cells were washed four times and separated. The radioactivity of the cell fractions was measured as mentioned below.

LLC-PK1 cells = experiment: Cellular uptake in LLC-PK1 cells; assay type: in vitro ADME, porcine; settings: incubation time 30 min; Figure 5
From the text: The cellular accumulation of two somatostatin receptor-specific analogs ([^111In]In -DOTA-TATE and [^111In]In -DOTA-NOC) was compared in two renal cellular models, OK cells and LLC-PK1 cells.

Row | Compound | contribution of active accumulation to cell uptake (isolated rat renal cells [1]) | radiopeptide uptake in rat kidneys in vivo (rat kidneys) | radiopeptide uptake in isolated rat cells (In Vitro) (isolated rat renal cells [2]) [%D/10^6 cells] | cellular accumulation in LLC-PK1 cells compared with OK cells (LLC-PK1 cells) | other results
1 | O=C(O)C(S)C(S)C(=O)O (stereo not drawn) [[^99mTc]Tc-DMSA, dimercaptosuccinate, metal not drawn] | lowest contribution | – | – | – | –
2 | CSCC[C@H](NC(=O)[C@H](Cc1c[nH]c2ccccc12)NC(=O)CNC(=O)[C@H](Cc1ccc(O)cc1)NC(=O)[C@H](C)NC(=O)[C@@H](CCC(=O)O)NC(=O)CN1CCN(CC(=O)O)CCN(CC(=O)O)CCN(CC(=O)O)CC1)C(=O)N[C@@H](CC(=O)O)C(=O)N[C@@H](Cc1ccccc1)C(N)=O [[^111In]In-DOTA-MG11, metal not drawn] ({DOTA}-[dE]AYGWMDF-NH2) | – | 0.84 ± 0.35 [21] %D/g | 0.16 ± 0.15 | – | –
3 | DTPA-DGlu-Glu-Glu-Glu-Glu-Glu-Ala-Tyr-Gly-Trp-Met-Asp-Phe-NH2 [[^111In]In-DTPA-MG0] | – | – | – | – | retention in the rat kidney in vivo (in words) (rat kidneys; rat, in vivo, iv): relatively high
4 | [DOTA^0, Tyr^3, Thr^8]-octreotide [[^111In]In-DOTA-TATE] | – | 3.08 ± 0.42 [19] %D/g | 0.36 ± 0.10 | relatively similar in both cell lines | –
5 | [DOTA^0, D-Phe^1, 1-Nal^3]-octreotide (disulfide) [[^111In]In-DOTA-NOC] | – | 2.84 ± 0.28 [19] %D/g | 0.75 ± 0.09 | significantly higher | –
6 | mercaptoacetylglycylglycylglycine [[^99mTc]Tc-MAG3] | highest contribution | – | – | – | accumulation at the low incubation temperature (isolated rat renal cells [1]; 2–4 °C, active processes blocked): negligible accumulation
